Data taken from ChEMBL document CHEMBL1201862, “PubChem BioAssay data set” (2004).
Calls of active or inactive are those of the source.

How the values were obtained:
[1] = molecular target: Cell division cycle 7-related protein kinase (Homo sapiens, UniProt O00311); type: functional;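 also: value obtained from a kinome-wide kinase panel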
[2] = molecular target: Rho-associated protein kinase 2 (Homo sapiens, UniProt O75116); type: functional
[3] = HEK293T cell cytotoxicity, dose response, cytotoxicity control, CellTiter-Glo luminescence, dry powder, set 2 (AID 720595); type: functional, cell-based; conditions: HEK293
[4] = Artemis endonuclease inhibitor potency, dose response, biochemical, fluorescence intensity (AID 720701); type: functional;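 also: Artemis endonuclease enzyme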
Vero = Vero cell cytotoxicity, cytotoxicity control for flavivirus capping enzyme inhibitors (AID 588742); type: functional; conditions: Chlorocebus sabaeus
Insulin-degrading enzyme = molecular target: T1, Insulin-degrading enzyme (Homo sapiens, UniProt P14735); experiment: activators of endogenous IDE in HEK cells, dose response, cell-based, fluorescence polarization (AID 588439); type: functional
T1 sequence (P14735 whole entry): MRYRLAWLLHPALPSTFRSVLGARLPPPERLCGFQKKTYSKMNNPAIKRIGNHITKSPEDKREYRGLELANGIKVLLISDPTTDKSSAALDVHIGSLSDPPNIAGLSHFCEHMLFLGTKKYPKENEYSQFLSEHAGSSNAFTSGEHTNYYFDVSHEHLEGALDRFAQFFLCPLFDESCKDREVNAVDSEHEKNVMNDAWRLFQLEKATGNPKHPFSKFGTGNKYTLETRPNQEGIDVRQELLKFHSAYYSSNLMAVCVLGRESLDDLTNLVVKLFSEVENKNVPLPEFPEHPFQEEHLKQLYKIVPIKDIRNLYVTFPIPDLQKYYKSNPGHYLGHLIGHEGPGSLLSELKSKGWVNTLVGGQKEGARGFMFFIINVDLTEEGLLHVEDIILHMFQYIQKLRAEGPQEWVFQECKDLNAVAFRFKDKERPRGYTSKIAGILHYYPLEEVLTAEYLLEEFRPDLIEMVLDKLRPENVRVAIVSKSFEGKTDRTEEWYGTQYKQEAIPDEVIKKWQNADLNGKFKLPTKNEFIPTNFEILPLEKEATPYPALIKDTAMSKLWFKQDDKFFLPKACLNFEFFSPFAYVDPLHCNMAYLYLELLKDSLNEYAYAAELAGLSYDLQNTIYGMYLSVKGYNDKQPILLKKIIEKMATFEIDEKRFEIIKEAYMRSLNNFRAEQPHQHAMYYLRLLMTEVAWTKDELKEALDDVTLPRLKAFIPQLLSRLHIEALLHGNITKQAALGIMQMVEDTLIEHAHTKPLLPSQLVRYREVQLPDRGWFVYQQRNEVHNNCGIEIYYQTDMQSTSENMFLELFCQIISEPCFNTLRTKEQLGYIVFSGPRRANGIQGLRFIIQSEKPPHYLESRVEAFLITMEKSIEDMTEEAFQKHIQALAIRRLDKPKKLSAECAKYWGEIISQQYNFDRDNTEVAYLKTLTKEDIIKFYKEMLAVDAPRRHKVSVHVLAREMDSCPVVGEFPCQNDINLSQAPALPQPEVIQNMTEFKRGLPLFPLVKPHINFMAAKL

BJ = experiment: cells; type: functional, cell-based; conditions: Homo sapiens
[5] = cytotoxicity toward DRD oncogenic fibroblasts, dose response, cell-based, non-viral oncogenic, luminescence (AID 1934); type: functional; conditions: Homo sapiens
HEK293 = experiment: HEK cell cytotoxicity by LDH release, dose response, cytotoxicity control for IDE activator project, fluorescence, HEK cells (AID 588440); type: functional, cell-based; conditions: Homo sapiens;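 also: cytotoxicity by LDH release measuring loss of membrane integrity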
Caspase-3 = molecular target: T2, Caspase-3 (Homo sapiens, UniProt P42574); type: functional;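 also: Dose-response selectivity test against caspase-3 for candidate inhibitors of sentrin-specific proteases (SENPs)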
T2 sequence (P42574 whole entry): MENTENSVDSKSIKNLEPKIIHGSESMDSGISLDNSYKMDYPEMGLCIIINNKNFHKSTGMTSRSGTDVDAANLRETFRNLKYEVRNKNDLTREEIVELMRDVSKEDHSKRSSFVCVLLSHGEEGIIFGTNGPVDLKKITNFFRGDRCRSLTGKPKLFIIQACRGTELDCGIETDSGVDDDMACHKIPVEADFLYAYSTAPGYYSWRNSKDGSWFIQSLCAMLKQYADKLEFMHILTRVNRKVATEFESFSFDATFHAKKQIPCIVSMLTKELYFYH

[6] = molecular target: T3, Sentrin-specific protease 6 (Homo sapiens, UniProt Q9GZR1); type: functional;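 also: Luminescence-based dose-response confirmatory assay of SENP6 inhibition, following up an ultra-high-throughput screen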
T3 sequence (Q9GZR1 whole entry): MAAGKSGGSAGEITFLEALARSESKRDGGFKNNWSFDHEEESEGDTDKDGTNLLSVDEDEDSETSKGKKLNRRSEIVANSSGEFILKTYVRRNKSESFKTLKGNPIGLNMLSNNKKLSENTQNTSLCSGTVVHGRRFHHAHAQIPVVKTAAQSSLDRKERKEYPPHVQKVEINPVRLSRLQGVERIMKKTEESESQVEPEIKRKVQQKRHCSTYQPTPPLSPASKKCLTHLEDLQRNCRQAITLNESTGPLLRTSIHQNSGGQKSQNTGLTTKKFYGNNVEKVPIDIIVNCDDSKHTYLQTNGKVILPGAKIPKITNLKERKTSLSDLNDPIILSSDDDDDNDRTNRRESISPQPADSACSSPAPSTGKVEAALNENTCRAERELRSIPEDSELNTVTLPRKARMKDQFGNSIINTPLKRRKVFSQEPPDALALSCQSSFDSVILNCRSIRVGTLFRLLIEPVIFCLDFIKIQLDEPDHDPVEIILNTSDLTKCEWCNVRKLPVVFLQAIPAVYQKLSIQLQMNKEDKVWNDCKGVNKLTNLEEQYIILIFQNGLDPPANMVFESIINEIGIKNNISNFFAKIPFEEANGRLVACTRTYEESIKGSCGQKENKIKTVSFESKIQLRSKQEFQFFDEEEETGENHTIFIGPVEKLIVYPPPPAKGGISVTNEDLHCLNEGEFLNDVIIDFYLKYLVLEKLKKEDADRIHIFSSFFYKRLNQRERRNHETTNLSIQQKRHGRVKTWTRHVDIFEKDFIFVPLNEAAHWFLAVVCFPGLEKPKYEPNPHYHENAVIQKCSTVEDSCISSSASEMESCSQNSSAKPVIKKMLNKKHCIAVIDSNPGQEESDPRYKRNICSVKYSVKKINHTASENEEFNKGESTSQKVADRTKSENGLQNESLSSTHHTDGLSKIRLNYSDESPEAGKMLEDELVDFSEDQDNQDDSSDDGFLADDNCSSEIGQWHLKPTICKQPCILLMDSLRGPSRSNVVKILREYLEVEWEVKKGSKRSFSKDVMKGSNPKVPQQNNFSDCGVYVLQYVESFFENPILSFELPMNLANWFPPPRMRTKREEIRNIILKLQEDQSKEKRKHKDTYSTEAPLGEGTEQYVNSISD

LIM domain kinase 1 = LIM domain kinase 1 (Homo sapiens, UniProt P53667); experiment: Navigating the Kinome. Panel member name: LIMK1; type: functional
Sequence of LIM domain kinase 1 (P53667 whole entry, the tested form may be a part): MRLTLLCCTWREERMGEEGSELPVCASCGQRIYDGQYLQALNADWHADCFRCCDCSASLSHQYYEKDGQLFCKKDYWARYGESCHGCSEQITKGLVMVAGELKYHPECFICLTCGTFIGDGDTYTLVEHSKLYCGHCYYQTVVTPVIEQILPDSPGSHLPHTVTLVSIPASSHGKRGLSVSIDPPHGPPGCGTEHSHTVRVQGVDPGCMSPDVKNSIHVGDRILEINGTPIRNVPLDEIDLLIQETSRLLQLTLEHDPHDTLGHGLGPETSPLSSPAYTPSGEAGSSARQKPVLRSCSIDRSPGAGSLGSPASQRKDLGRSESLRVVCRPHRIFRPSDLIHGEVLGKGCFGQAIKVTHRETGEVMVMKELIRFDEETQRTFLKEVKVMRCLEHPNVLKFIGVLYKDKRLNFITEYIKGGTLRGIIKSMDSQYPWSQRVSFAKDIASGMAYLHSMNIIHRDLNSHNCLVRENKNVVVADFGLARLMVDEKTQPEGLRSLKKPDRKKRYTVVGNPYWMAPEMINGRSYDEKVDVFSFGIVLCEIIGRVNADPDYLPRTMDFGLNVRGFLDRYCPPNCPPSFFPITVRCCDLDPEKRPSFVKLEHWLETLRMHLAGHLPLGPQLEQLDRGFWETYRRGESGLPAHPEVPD

[7] = molecular target: Cyclin-dependent kinase 5 (Homo sapiens, UniProt Q00535); type: functional;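 also: CDK5 measured as one member of a kinase profiling panel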
Sequence of Cyclin-dependent kinase 5 (Q00535 whole entry): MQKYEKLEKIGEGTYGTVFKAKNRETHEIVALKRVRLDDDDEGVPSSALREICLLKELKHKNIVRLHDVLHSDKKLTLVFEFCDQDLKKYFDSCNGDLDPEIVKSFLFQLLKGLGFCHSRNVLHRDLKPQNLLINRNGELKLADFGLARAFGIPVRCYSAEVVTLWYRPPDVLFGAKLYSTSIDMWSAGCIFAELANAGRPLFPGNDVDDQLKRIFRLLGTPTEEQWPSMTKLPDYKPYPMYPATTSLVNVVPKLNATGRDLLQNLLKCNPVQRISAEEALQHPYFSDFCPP

[8] = molecular target: Serine/threonine-protein kinase Nek2 (Homo sapiens, UniProt P51955); type: functional
Sequence of Serine/threonine-protein kinase Nek2 (P51955 whole entry): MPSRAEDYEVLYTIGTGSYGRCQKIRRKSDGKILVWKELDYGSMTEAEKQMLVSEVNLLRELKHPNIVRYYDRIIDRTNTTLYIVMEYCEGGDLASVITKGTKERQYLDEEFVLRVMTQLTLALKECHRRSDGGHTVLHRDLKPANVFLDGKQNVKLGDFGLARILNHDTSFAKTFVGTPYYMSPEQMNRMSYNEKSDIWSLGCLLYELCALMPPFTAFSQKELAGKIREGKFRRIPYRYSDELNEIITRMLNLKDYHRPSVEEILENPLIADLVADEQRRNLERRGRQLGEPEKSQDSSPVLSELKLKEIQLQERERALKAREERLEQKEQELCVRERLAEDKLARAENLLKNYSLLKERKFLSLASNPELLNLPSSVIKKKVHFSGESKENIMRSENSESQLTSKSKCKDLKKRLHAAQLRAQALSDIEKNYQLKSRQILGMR

Sequence of Cell division cycle 7-related protein kinase (O00311 whole entry): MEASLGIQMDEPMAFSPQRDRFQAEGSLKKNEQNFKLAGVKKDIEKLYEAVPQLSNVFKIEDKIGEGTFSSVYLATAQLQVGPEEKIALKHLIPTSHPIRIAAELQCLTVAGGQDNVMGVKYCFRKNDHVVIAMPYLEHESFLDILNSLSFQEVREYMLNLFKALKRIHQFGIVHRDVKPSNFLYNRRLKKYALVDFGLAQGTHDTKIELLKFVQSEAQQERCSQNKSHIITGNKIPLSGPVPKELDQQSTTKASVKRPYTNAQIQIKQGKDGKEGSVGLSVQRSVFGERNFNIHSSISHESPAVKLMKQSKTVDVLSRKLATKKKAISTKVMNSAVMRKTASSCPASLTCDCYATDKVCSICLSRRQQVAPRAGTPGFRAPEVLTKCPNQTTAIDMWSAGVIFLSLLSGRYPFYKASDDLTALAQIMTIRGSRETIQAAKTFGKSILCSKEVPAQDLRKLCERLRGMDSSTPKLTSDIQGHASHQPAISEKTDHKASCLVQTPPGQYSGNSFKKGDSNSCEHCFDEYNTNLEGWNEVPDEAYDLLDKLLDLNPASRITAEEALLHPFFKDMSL
Sequence of Rho-associated protein kinase 2 (O75116 whole entry): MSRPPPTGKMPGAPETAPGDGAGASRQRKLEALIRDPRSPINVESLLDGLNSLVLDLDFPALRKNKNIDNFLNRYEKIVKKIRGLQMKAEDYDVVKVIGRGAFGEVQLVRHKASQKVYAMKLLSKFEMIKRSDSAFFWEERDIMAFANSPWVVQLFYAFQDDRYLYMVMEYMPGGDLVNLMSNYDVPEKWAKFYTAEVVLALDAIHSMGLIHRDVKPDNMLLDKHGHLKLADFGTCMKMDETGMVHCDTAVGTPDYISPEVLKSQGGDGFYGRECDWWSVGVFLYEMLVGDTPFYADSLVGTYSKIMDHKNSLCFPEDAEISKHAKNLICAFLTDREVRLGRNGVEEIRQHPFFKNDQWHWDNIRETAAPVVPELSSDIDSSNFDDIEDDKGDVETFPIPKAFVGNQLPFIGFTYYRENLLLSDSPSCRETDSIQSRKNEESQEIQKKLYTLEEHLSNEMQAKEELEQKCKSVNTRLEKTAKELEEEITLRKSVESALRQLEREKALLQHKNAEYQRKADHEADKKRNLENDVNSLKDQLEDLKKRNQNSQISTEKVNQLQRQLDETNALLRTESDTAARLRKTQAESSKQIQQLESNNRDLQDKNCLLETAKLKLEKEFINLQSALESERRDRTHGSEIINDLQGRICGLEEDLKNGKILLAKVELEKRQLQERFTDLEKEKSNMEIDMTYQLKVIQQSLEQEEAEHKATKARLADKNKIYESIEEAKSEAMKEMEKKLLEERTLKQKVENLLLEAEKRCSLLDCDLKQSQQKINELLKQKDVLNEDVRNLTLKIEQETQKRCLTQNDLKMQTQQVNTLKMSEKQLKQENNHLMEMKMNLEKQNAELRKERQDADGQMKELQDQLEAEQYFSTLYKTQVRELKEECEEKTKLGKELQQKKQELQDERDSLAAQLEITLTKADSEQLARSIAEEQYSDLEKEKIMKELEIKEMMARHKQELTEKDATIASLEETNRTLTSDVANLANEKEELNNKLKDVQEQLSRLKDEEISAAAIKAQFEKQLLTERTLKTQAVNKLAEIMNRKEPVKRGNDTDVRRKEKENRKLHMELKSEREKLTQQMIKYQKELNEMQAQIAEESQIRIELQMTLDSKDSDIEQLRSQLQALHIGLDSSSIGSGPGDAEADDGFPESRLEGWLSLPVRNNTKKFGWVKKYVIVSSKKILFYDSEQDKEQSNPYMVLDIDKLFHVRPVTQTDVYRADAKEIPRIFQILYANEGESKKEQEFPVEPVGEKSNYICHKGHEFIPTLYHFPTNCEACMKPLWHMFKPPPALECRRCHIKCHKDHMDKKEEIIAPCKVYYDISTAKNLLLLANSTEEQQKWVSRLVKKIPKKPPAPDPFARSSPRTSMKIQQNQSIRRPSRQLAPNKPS

Which results are given for NC1CCC(Nc2nc(Cl)cc(-c3c[nH]c4ncccc34)n2)CC1 (stereo unspecified)?
Ki [1]: 0.000316 µM (active); pKi [1]: 9.5; Ki [2]: 0.002 µM (active); pKi [2]: 8.7

With CC(C)CC(=O)NC(c1cccs1)c1ccc2cccnc2c1O (stereo unspecified) as the molecule, how does the AC50 [3] read?
The AC50 was 1.75 µM (active).

What does the source list for CCOC(=O)c1ccc(NC2=CC(=O)C(=O)c3ccccc32)cc1?
IC50 [4]: 2.6 µM (active); CC50 (Vero): 22.3 µM (active)

For OC(CNCCC1C=Nc2ccccc21)Cn1c2ccc(Cl)cc2c2cc(Cl)ccc21 (stereo unspecified), which EC50 (Insulin-degrading enzyme) is on record?
The EC50 was > 54.7 µM (inactive).

What about the EC50 (BJ) of the same molecule?
The EC50 was > 75 µM (not active).

What about the EC50 [5] of the same molecule?
Its EC50 is 9.1 µM (active).

And the IC50 (HEK293)?
The IC50 was 10.2 µM (inactive).

With COc1ccc(C(=O)c2nccc3cc(OC)c(OC)cc23)cc1OC as the molecule, how does the IC50 (Caspase-3) read?
Its IC50 is 8.21 µM (active).

And the IC50 [6]?
The IC50 was 0.805 µM (active).

Which Ki (LIM domain kinase 1) does the source give for O=C(O)C1CN(Cc2ccc(OCc3ccccc3)cc2Cl)C1 here?
The Ki was > 3.16 µM (inactive).

What about the Ki [7] of the same molecule?
Its Ki is > 3.16 µM (inactive).

What about the Ki [8] of the same molecule?
Its Ki is > 3.16 µM (inactive).
